Read-outs that look alike come from different tables or passages of the source.
Assays:
p-ERK = test: Cell p-ERK assay (HTRF, Advance ERK phospho-T202/Y204 kit) in NCI-H441 cells; type: cell-based; settings: NCI-H441, human non-small cell lung cancer cell strain, KRAS G12V mutation, 3 h compound incubation
Procedure: AsPC-1 cells were purchased from ATCC, Cat. No. CRL-1682; NCI-H441 cells were purchased from ATCC, Cat. No. HTB-174; RPMI-1640 medium was purchased from Gibco, Cat. No. 11875-093; FBS was purchased from Gibco, Cat. No. 10099-141C; penicillin/streptomycin double-antibiotic solution (PS) was purchased from Gibco, Cat. No. 15140-122; trypsin (containing EDTA) was purchased from Gibco, Cat. No. 25200-072; DMSO was purchased from VWRAMRESCO, Cat. No. 0231-500ML; 96-well cell culture plates were purchased from Corning, Cat. No. 3599; white-bottomed, opaque 96-well plates were purchased from Cisbio, Cat. No. 66PL96025; Advance ERK phospho-T202/Y204 kit was purchased from Cisbio, Cat. No. 64AERPEH; cell counter was purchased from CHEMOMETEC, model: NC-200; microplate reader was purchased from PerkinElmer, model: EnVision.
AsPC-1, a human pancreatic cancer cell strain endogenously containing a KRAS^G12D mutation, was cultured in a complete medium containing RPMI-1640 + 10% FBS + 1% PS. NCI-H441, a human non-small cell lung cancer cell strain endogenously containing a KRAS^G12V mutation, was cultured in a complete medium containing RPMI-1640 + 10% FBS + 1% PS.
The cells were digested with trypsin (containing EDTA), collected in their corresponding complete media, and counted. The density of the cell suspensions was adjusted with their corresponding complete media, and AsPC-1 cells (10000 cells/well) or NCI-H441 cells (20000 cells/well) were seeded into a 96-well cell culture plate, with the volume of the medium in each well being 80 µL. The cell culture plate was incubated in an incubator at 37 °C with 5% CO2 overnight. A series of 3.16-fold gradient dilutions of a 1000× compound stock solution were prepared with DMSO, and then diluted 200-fold with the complete medium described above to give 5× compound stock solutions. On the day after cell seeding, 20 µL of the 5× compound stock solution was added to each cell culture well. As a result, the final concentration of the compound in the cell culture well became 1×, and the DMSO content in the well was 0.1%. In addition to the compound-treated wells described above, cell-containing DMSO control wells were also set. A complete medium containing 0.5% DMSO was added at 20 µL/well. After the mixture was well mixed, the culture plate was incubated in the incubator at 37 °C with 5% CO2 for another 3 h. The medium was then removed from the culture wells, and 50 µL of cell lysis buffer (from Advance ERK phospho-T202/Y204 kit) was added to each well. The mixture was well mixed, incubated for 30 min, and then transferred to a white-bottomed, opaque 96-well assay plate at 16 µL/well, and separately, 16 µL of cell lysis buffer was added to additional wells (serving as blank wells) in the assay plate. After the transfer was completed, 4 µL of p-ERK HTRF antibody mixture (from Advance ERK phospho-T202/Y204 kit) was added to each well of the assay plate, followed by a 4-hour incubation. The HTRF signal values (RLU) were then measured using a microplate reader, and the inhibition rate of the compound against p-ERK levels was calculated as follows: IR(%) = (RLUDMSO - RLUcompound)/(RLUDMSO - RLUblank) × 100%, where RLUDMSO is the average HTRF signal value from the DMSO control well samples, RLU is the average HTRF signal value from the blank well samples, and RLUcompound is the HTRF signal value from the compound-treated well samples. Using an XLfit software, the IR(%) values were plotted against the logarithm of the compound concentrations, and the dose-response curves were fitted using the four-parameter method to calculate the IC50 values.

NCI-H441 cells = test: 3D cell proliferation assay (CellTiter Glo-3D) in NCI-H441 cells; type: cell-based; settings: NCI-H441, human lung cancer cell strain, KRAS G12V mutation, 3D culture, 2% FBS, 5 days, read-out: H441 AP IC50
Description: MIA PaCa-2 cells were purchased from ATCC, Cat. No. CRL-1420; AsPC-1 cells were purchased from ATCC, Cat. No. CRL-1682; NCI-H441 cells were purchased from ATCC, Cat. No. HTB-174; NCI-H1975 cells were purchased from ATCC, Cat. No. CRL-5908; DMEM medium was purchased from Gibco, Cat. No. 11995-065; RPMI-1640 medium was purchased from Gibco, Cat. No. 11875-093; FBS was purchased from Gibco, Cat. No. 10099-141C; penicillin/streptomycin double-antibiotic solution (PS) was purchased from Gibco, Cat. No. 15140-122; Horse serum was purchased from Gibco, Cat. No. 16050130; trypsin (containing EDTA) was purchased from Gibco, Cat. No. 25200-072; DMSO was purchased from VWRAMRESCO, Cat. No. 0231-500ML; 384-well cell culture plates were purchased from Corning, Cat. No. 3830; white-bottomed, opaque 384-well assay plates were purchased from Corning, Cat. No. 3570; CellTiter Glo-3D kit was purchased from Promega, Cat. No. G9683; cell counter was purchased from CHEMOMETEC, model: NC-200; microplate reader was purchased from PerkinElmer, model: EnVision.
MIA PaCa-2, a human pancreatic cancer cell strain endogenously containing a KRAS^G12Cmutation, was cultured in a complete medium containing DMEM + 10% FBS + 2.5% Horse serum + 1% PS. AsPC-1, a human pancreatic cancer cell strain endogenously containing a KRAS^G12D mutation, was cultured in a complete medium containing RPMI-1640 + 10% FBS + 1% PS. NCI-H441 cells, a human lung cancer cell strain endogenously containing a KRAS^G12V mutation, were cultured in a complete medium containing RPMI-1640 + 10% FBS + 1% PS. NCI-H1975, a KRAS wild-type human lung cancer cell strain whose cell proliferation […], was cultured in a complete medium containing RPMI-1640 + 10% FBS + 1% PS.
The cells were digested with trypsin (containing EDTA), collected in their respective low-serum complete media containing 2% FBS (for MIA Paca-2 cell culture: DMEM + 2% FBS + 0.5% Horse serum + 1% PS), and counted. After the cell density was adjusted as required, MIA PaCa-2 cells (200 cells/well), AsPC-1 cells (800 cells/well), NCI-H441 cells (800 cells/well), or NCI-H1975 cells (400 cells/well) were seeded into a 384-well cell culture plate, with the volume of the medium in each well being 45 µL. The cell culture plate was incubated in an incubator at 37 °C with 5% CO2 overnight. A series of 3.16-fold gradient dilutions of a 1000× compound stock solution were prepared with DMSO, and then diluted 100-fold with the complete medium containing 2% FBS described above to give 10× compound stock solutions. On the day after cell seeding, 5 µL of the 10× compound stock solution was added to each cell culture well. As a result, the final concentration of the compound in the cell culture well became 1×, and the DMSO content in the well was 0.1%. In addition to the compound-treated wells described above, cell-containing DMSO control wells (with 5 µL of the complete medium containing 1% DMSO added to each well) and cell-free medium control wells (containing 50 µL of the complete medium with 2% FBS) were also set. The culture plate was incubated in an incubator at 37 °C with 5% CO2 for another 5 days, and then 30 µL of CellTiter-Glo working solution was added to each well. The mixture was well mixed, incubated for 30 min, left to stand at room temperature for 30 min, and then transferred to a white-bottomed, opaque 384-well assay plate at 40 µL/well. The chemiluminescence values (RLU) were measured using a microplate reader, and the cell proliferation inhibition rate for each well was calculated: IR(%) = (RLUDMSO - RLUcompound)/(RLUDMSO - RLUblank) × 100%, where RLUDMSO is the average RLU signal value from the DMSO control well samples, RLUblank is the average RLU signal value from the medium control well samples, and RLUcompound is the RLU signal value from the compound-treated well samples. […]

Compound	IC50 (p-ERK; Homo sapiens, NCI-H441, 3 h) [nM]	IC50 (NCI-H441 cells; Homo sapiens, NCI-H441, 120 h) [nM]	IC50 (NCI-H441 cells) [nM]	IC50 (p-ERK) [nM]
CCn1nc2c(c1-c1cc(C#CCN3CCS(=O)(=O)CC3)cnc1[C@H](C)OC)CC(C)(C)COC(=O)[C@@H]1CCCN(N1)C(=O)[C@@H](NC(=O)[C@H](C(C)C)N(C)C(=O)COc1ccccc1)Cc1nc(cs1)/C=C/2 (atropisomer, axis not shown; (Ra)) [Compound Z57, (2S)-N-((4^2Z,8^3S,2E,6S)-(Ra)-1^5-(5-(3-(1,1-dioxidothiomorpholino)prop-1-yn-1-yl)-2-((S)-1-methoxyethyl)pyridin-3-yl)-1^1-ethyl-12,12-dimethyl-7,9-dioxo-8^1,8^2,8^1,8^4,8^1,8^6-hexahydro-1^1H-10-oxa-4(4,2)-thiazola-8(1,3)-pyridazina-1(3,4)-pyrazolocyclotridec-2-en-6-yl)-3-methyl-2-(N-methyl-2-phenoxyacetamido)butanamide]	88	245	–	–
CCn1nc2c(c1-c1cc(C#CCN3CCS(=O)(=O)CC3)cnc1[C@H](C)OC)CC(C)(C)COC(=O)[C@@H]1CCCN(N1)C(=O)[C@@H](NC(=O)[C@H](C(C)C)N(C)c1ccc3ncn(C)c3c1)Cc1nc(cs1)/C=C/2 (atropisomer, axis not shown; (Ra)) [Compound Z115, (2S)-N-((4^2Z,8^3S,2E,6S)-1^5-(Ra)-(5-(3-(1,1-dioxidothiomorpholino)prop-1-yn-1-yl)-2-((S)-1-methoxyethyl)pyridin-3-yl)-1^1-ethyl-12,12-dimethyl-7,9-dioxo-8^1,8^2,8^3,8^4,8^5,8^6-hexahydro-1^1H-10-oxa-4(4,2)-thiazola-8(1,3)-pyridazina-1(3,4)-pyrazolocyclotridec-2-en-6-yl)-3-methyl-2-(methyl(1-methyl-1H-benzo[d]imidazol-6-yl)amino)butanamide]	3.97	18.9	–	–
CCn1nc2c(c1-c1cc(C#CCN3CCS(=O)(=O)CC3)cnc1[C@H](C)OC)CC(C)(C)COC(=O)[C@@H]1CCCN(N1)C(=O)[C@@H](NC(=O)[C@H](C(C)C)N1CCC(C)C1=O)Cc1nc(cs1)/C=C/2 (atropisomer, axis not shown; (Ra)) [Compound Z116, (2S)-N-((4^2Z,8^3S,2E,6S)-(Ra)-1^5-(5-(3-(1,1-dioxothiomorpholinyl)prop-1-yn-1-yl)-2-((S)-1-methoxyethyl)pyridin-3-yl)-1^1-ethyl-12,12-dimethyl-7,9-dioxo-8^1,8^2,8^1,8^4,8^5,8^6-hexahydro-1^1H-10-oxo-4 (4,2)-thiazola-8(1,3)-pyridazina-1(3,4)-pyrrolacyclotridecaphan-2-en-6-yl)-3-methyl-2-(3-methyl-2-oxopyrrolidin-1-yl)butanamide]	115	386	–	–
CCn1c(OC)c2c(c1-c1cc(C#CCN3CCS(=O)(=O)CC3)cnc1[C@H](C)OC)CC(C)(C)COC(=O)[C@@H]1CCCN(N1)C(=O)[C@@H](NC(=O)[C@H]1[C@H](C)[C@@H]1C)Cc1nc(cs1)/C=C/2 (atropisomer, axis not shown; (Ra)) [Compound Z191, (1r,2R,3S)-N-((4^2Z,8^3S,2E,6S)-(Ra)-1^5-(5-(3-(1,1-dioxidothiomorpholino)prop-1-yn-1-yl)-2-((S)-1-methoxyethyl)pyridin-3-yl)-1^1-ethyl-1^2-methoxy-12,12-dimethyl-7,9-dioxo-8^1,8^2,8^3,8^4,8^5,8^6-hexahydro-1^1H-10-oxa-4(4,2)-thiazola-8(1,3)-pyridazina-1(3,4)-pyrrolacyclotridecaphan-2-en-6-yl)-2,3-dimethylcyclopropane-1-carboxamide]	3.92	7.19	–	–
CCn1c(-c2cc(N3CCN(C)CC3)cnc2[C@H](C)OC)c2c3cc(ccc31)NC(=O)OC[C@H](NC(=O)[C@H]1[C@H](C)[C@@H]1C)C(=O)N1CCC[C@H](N1)C(=O)OCC(C)(C)C2 (single isomer, unassigned) [Compound Z2-1]	239	374	–	–
CCn1nc2c(c1-c1cc(C#CCN3CCS(=O)(=O)CC3)cnc1C(C)OC)CC(C)(C)COC(=O)C1CCCN(N1)C(=O)C(NC(=O)C(C)Cc1ccnc(NC)c1)Cc1nc(cs1)C=C2 (single isomer, unassigned) [Compound Z52-1]	52.3	–	76.5	–
CCn1nc2c(c1-c1cc(C#CCN3CCS(=O)(=O)CC3)cnc1C(C)OC)CC(C)(C)COC(=O)C1CCCN(N1)C(=O)C(NC(=O)C(C)Cc1ccnc(NC)c1)Cc1nc(cs1)C=C2 (single isomer, unassigned) [Compound Z52-2]	–	–	25	32
